Measured values: patent US9227971B2, “Pyrazolo[1,5-a]pyrimidine compounds as mTOR inhibitors” (Merck Sharp & Dohme Corp., priority 2010, dated 2016)
Like-named read-outs stand apart in the source and are kept apart here.

Columns and labels:
[1] = test system: phosphorylated AKT Ser473 (pAKT S473), mTORC2 activity, PC3 cells; test: mTOR target engagement assay, immunofluorescent cell-based, pAKT S473 readout (mTORC2 activity)
Procedure, shortened: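 After blocking, cells were stained overnight at 4 °C with anti-pAKT S473 antibody, then a fluorescent secondary; inhibition was read as reduced fluorescence intensity.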

[2] = test system: phosphorylated 4E-BP1 Thr37/46 (p4E-BP1 Thr37/46), mTORC1 activity, PC3 cells; test: mTOR target engagement assay, immunofluorescent cell-based, p4E-BP1 Thr37/46 readout (mTORC1 activity); conditions: read-out: p4E-BP1 Thr37/46 IC50
Procedure, shortened: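 PTEN-mutant PC3 prostate cells were treated with serially diluted compound in 5% FBS F12 medium (0.25% DMSO) for ninety minutes at 37° C, glyoxal-fixed, then immunostained overnight at 4° C for p4E-BP1 Thr37/46 with an Alexa Fluor 488 secondary. IC50 came from four-parameter fits of fluorescence, DMSO-only wells defining 100%.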

[3] = Homo sapiens, PC-3, Table 3-1, PC3 cells
[4] = Homo sapiens, PC-3, Table 6-1, PC3 cells
[5] = Homo sapiens, PC-3, PC3 cells, compound treatment ninety minutes at 37° C.
[6] = Homo sapiens, PC-3, Table 7-2, PC3 cells
[7] = Homo sapiens, PC-3, Table 7-8, PC3 cells

**Q.** With Cc1n[nH]c(C(=O)N2[C@@H]3CC[C@H]2C[C@H](c2nc4c(-c5ccc(-c6ccccc6)nc5)cnn4c(N)c2S(C)(=O)=O)C3)n1 [Compound 3.4, ((1R,3s,5S)-3-(7-amino-6-(methylsulfonyl)-3-(6-phenylpyridin-3-yl)pyrazolo[1,5-a]pyrimidin-5-yl)-8-azabicyclo[3.2.1]octan-8-yl)(3-methyl-1H-1,2,4-triazol-5-yl)methanone] as the compound, how does the IC50 [1, 3] read?
**A.** 1 to 100 nM

**Q.** And the IC50 [2, 3]?
**A.** 1 to 100 nM

**Q.** Which results are given for Nc1c(C2CC2)c([C@@H]2C[C@H]3CC[C@@H](C2)N3C(=O)CO)nc2c(-c3ccc(-c4ncc[nH]4)c(F)c3)cnn12 [Compound 6.37, 1-((1R,3s,5S)-3-(7-amino-6-cyclopropyl-3-(3-fluoro-4-(1H-imidazol-2-yl)phenyl)pyrazolo[1,5-a]pyrimidin-5-yl)-8-azabicyclo[3.2.1]octan-8-yl)-2-hydroxyethanone]?
**A.** IC50 [1, 4]: 1 to 100 nM; IC50 [2, 4]: 1 to 100 nM

**Q.** With CC(=O)c1c([C@@H]2C[C@H]3CC[C@@H](C2)N3C(=O)C2CCCO2)nc2c(-c3ccc(-c4ncc[nH]4)nc3)cnn2c1N (stereo partly drawn) [Compound 6.19, 1-(3-(6-(1H-imidazol-2-yl)pyridin-3-yl)-7-amino-5-((1R,3s,5S)-8-(tetrahydrofuran-2-carbonyl)-8-azabicyclo[3.2.1]octan-3-yl)pyrazolo[1,5-a]pyrimidin-6-yl)ethanone] as the compound, how does the IC50 [1, 4] read?
**A.** 1 to 100 nM

**Q.** What about the IC50 [2, 4] of the same compound?
**A.** 100 to 1000 nM

**Q.** How did the IC50 [1, 5] turn out when COc1ccc(-c2ccc(-c3cnn4c(N)cc([C@@H]5C[C@H]6CC[C@@H](C5)N6C(=O)c5nnc[nH]5)nc34)cn2)cc1CO [Compound 2.6, ((1R,3s,5S)-3-(7-amino-3-(6-(3-(hydroxymethyl)-4-methoxyphenyl)pyridin-3-yl)pyrazolo[1,5-a]pyrimidin-5-yl)-8-azabicyclo[3.2.1]octan-8-yl)(4H-1,2,4-triazol-3-yl)methanone] was run?
**A.** 100 to 1000 nM

**Q.** And the IC50 [2, 5]?
**A.** 100 to 1000 nM

**Q.** How did the IC50 [1, 3] turn out when CS(=O)(=O)c1c([C@@H]2C[C@H]3CC[C@@H](C2)N3C(=O)c2cc(O)ccn2)nc2c(-c3ccc(-c4ccccc4)nc3)cnn2c1N [Compound 3.14, ((1R,3s,5S)-3-(7-amino-6-(methylsulfonyl)-3-(6-phenylpyridin-3-yl)pyrazolo[1,5-a]pyrimidin-5-yl)-8-azabicyclo[3.2.1]octan-8-yl)(4-hydroxypyridin-2-yl)methanone] was run?
**A.** 100 to 1000 nM

**Q.** What about the IC50 [2, 3] of the same compound?
**A.** 1000 to 10000 nM

**Q.** What does the source list for Cc1n[nH]cc1C(=O)N1[C@@H]2CC[C@H]1C[C@H](c1nc3c(-c4ccc(-c5ccccc5)nc4)cnn3c(N)c1S(C)(=O)=O)C2 [Compound 3.80, ((1R,3s,5S)-3-(7-amino-6-(methylsulfonyl)-3-(6-phenylpyridin-3-yl)pyrazolo[1,5-a]pyrimidin-5-yl)-8-azabicyclo[3.2.1]octan-8-yl)(3-methyl-1H-pyrazol-4-yl)methanone]?
**A.** IC50 [1, 3]: 1 to 100 nM; IC50 [2, 3]: 1 to 100 nM

**Q.** How did the IC50 ([1]; PC3 cells) turn out when CS(=O)(=O)c1c(C2CC3COCC(C2)N3C(=O)c2nc[nH]n2)nc2c(-c3ccc(-c4ccccc4)nc3)cnn2c1N (single isomer, unassigned) [Compound 8.31, (7-(7-amino-6-(methylsulfonyl)-3-(6-phenylpyridin-3-yl)pyrazolo[1,5-a]pyrimidin-5-yl)-3-oxa-9-azabicyclo[3.3.1]nonan-9-yl)(1H-1,2,4-triazol-3-yl)methanone] was run?
**A.** 100 to 1000 nM

**Q.** And the IC50 ([2]; PC3 cells)?
**A.** 100 to 1000 nM

**Q.** What does the source list for CCCC(O)c1ccc(-c2cnn3c(N)c(S(C)(=O)=O)c([C@@H]4C[C@H]5CC[C@@H](C4)N5C(=O)c4nnc[nH]4)nc23)cn1 (stereo partly drawn) [Compound 7.25, ((1R,3s,5S)-3-(7-amino-3-(6-(1-hydroxybutyl)pyridin-3-yl)-6-(methylsulfonyl)pyrazolo[1,5-a]pyrimidin-5-yl)-8-azabicyclo[3.2.1]octan-8-yl)(4H-1,2,4-triazol-3-yl)methanone]?
**A.** IC50 [1, 6]: 1000 to 10000 nM; IC50 [2, 6]: 1000 to 10000 nM

**Q.** Which results are given for CS(=O)(=O)c1c([C@@H]2C[C@H]3CC[C@@H](C2)N3C(=O)CO)nc2c(-c3ccc(-c4ccccc4F)nc3)cnn2c1N [Compound 3.132, 1-((1R,3a,5S)-3-(7-amino-3-(6-(2-fluorophenyl)pyridin-3-yl)-6-(methylsulfonyl)pyrazolo[1,5-a]pyrimidin-5-yl)-8-azabicyclo[3.2.1]octan-8-yl)-2-hydroxyethanone]?
**A.** IC50 [1, 3]: 1 to 100 nM; IC50 [2, 3]: 100 to 1000 nM

**Q.** For Nc1c(C2CC2)c([C@@H]2C[C@H]3CC[C@@H](C2)N3C(=O)c2nnc[nH]2)nc2c(-c3ccc(C4(O)CCC4)nc3)cnn12 [Compound 7.43, ((1R,3s,5S)-3-(7-amino-6-cyclopropyl-3-(6-(1-hydroxycyclobutyl)pyridin-3-yl)pyrazolo[1,5-a]pyrimidin-5-yl)-8-azabicyclo[3.2.1]octan-8-yl)(4H-1,2,4-triazol-3-yl)methanone], which IC50 [1, 7] is on record?
**A.** 100 to 1000 nM

**Q.** And the IC50 [2, 7]?
**A.** 100 to 1000 nM

**Q.** Which IC50 [1, 5] does the source give for COc1ccc(-c2ccc(-c3cnn4c(N)c(C(C)=O)c([C@@H]5C[C@H]6CC[C@@H](C5)N6C(=O)c5nnc[nH]5)nc34)cn2)c(F)c1 [Compound 1.1.47, 1-(5-((1R,3s,5S)-8-(4H-1,2,4-triazole-3-carbonyl)-8-azabicyclo[3.2.1]octan-3-yl)-7-amino-3-(6-(2-fluoro-4-methoxyphenyl)pyridin-3-yl)pyrazolo[1,5-a]pyrimidin-6-yl)ethanone] here?
**A.** 1 to 100 nM

**Q.** And the IC50 [2, 5]?
**A.** 1 to 100 nM

**Q.** Which IC50 [1, 3] does the source give for CS(=O)(=O)c1c([C@@H]2C[C@H]3CC[C@@H](C2)N3C(=O)c2nnc[nH]2)nc2c(-c3ccc(-c4cccc(F)c4)nc3)cnn2c1N [Compound 3.46, ((1R,3s,5S)-3-(7-amino-3-(6-(3-fluorophenyl)pyridin-3-yl)-6-(methylsulfonyl)pyrazolo[1,5-a]pyrimidin-5-yl)-8-azabicyclo[3.2.1]octan-8-yl)(4H-1,2,4-triazol-3-yl)methanone] here?
**A.** 1 to 100 nM

**Q.** And the IC50 [2, 3]?
**A.** 1 to 100 nM

**Q.** CC(=O)c1c([C@@H]2C[C@H]3CC[C@@H](C2)N3C(=O)c2nnc[nH]2)nc2c(-c3ccc(-c4ccn(C)n4)nc3)cnn2c1N [Compound 1.1.55, 1-(5-((1R,3s,5S)-8-(4H-1,2,4-triazole-3-carbonyl)-8-azabicyclo[3.2.1]octan-3-yl)-7-amino-3-(6-(1-methyl-1H-pyrazol-3-yl)pyridin-3-yl)pyrazolo[1,5-a]pyrimidin-6-yl)ethanone] was tested. Which IC50 [1, 5] did it give?
**A.** 1 to 100 nM

**Q.** And the IC50 [2, 5]?
**A.** 1 to 100 nM

**Q.** What does the source list for CS(=O)(=O)c1c([C@@H]2C[C@H]3CC[C@@H](C2)N3C(=O)c2nc(C(F)(F)F)n[nH]2)nc2c(-c3ccc(-c4ccccc4)nc3)cnn2c1N [Compound 3.99, ((1R,3s,5S)-3-(7-amino-6-(methylsulfonyl)-3-(6-phenylpyridin-3-yl)pyrazolo[1,5-a]pyrimidin-5-yl)-8-azabicyclo[3.2.1]octan-8-yl)(3-(trifluoromethyl)-1H-1,2,4-triazol-5-yl)methanone]?
**A.** IC50 [1, 3]: 1000 to 10000 nM; IC50 [2, 3]: 1000 to 10000 nM

**Q.** What does the source list for CS(=O)(=O)c1c([C@H]2CC3CC[C@H](C2)N3C(=O)c2cn[nH]n2)nc2c(-c3cnc(-c4ccccc4)cn3)cnn2c1N [Compound 3.175]?
**A.** IC50 [1, 3]: 1000 to 10000 nM; IC50 [2, 3]: 1000 to 10000 nM

**Q.** With COc1ccc(-c2ccc(-c3cnn4c(N)c(Br)c([C@@H]5C[C@H]6CC[C@@H](C5)N6C(=O)c5nnc[nH]5)nc34)cn2)cc1F [Compound 2.4, ((1R,3s,5S)-3-(7-amino-6-bromo-3-(6-(3-fluoro-4-methoxyphenyl)pyridin-3-yl)pyrazolo[1,5-a]pyrimidin-5-yl)-8-azabicyclo[3.2.1]octan-8-yl)(4H-1,2,4-triazol-3-yl)methanone] as the compound, how does the IC50 [1, 5] read?
**A.** 100 to 1000 nM

**Q.** And the IC50 [2, 5]?
**A.** 100 to 1000 nM

**Q.** With Cc1nnc(C(=O)N2[C@@H]3CC[C@H]2C[C@H](c2nc4c(-c5ccc(-c6ccc(F)cc6)nc5)cnn4c(N)c2S(C)(=O)=O)C3)[nH]1 [Compound 3.119, ((1R,3s,5S)-3-(7-amino-3-(6-(4-fuorophenyl)pyridin-3-yl)-6-(methylsulfonyl)pyrazolo[1,5-a]pyrimidin-5-yl)-8-azabicyclo[3.2.1]octan-8-yl)(5-methyl-4H-1,2,4-triazol-3-yl)methanone] as the compound, how does the IC50 ([1]; Table 3-1, PC3 cells) read?
**A.** 1 to 100 nM

**Q.** And the IC50 ([2]; Table 3-1, PC3 cells)?
**A.** 1 to 100 nM

**Q.** CC(=O)c1c([C@@H]2C[C@H]3CC[C@@H](C2)N3C(=O)c2nnc[nH]2)nc2c(-c3ccc(-c4ncc(C)[nH]4)c(F)c3)cnn2c1N [Compound 6.39, 1-(5-((1R,3s,5S)-8-(4H-1,2,4-triazole-3-carbonyl)-8-azabicyclo[3.2.1]octan-3-yl)-7-amino-3-(3-fluoro-4-(5-methyl-1H-imidazol-2-yl)phenyl)pyrazolo[1,5-a]pyrimidin-6-yl)ethanone] was tested. Which IC50 [1, 4] did it give?
**A.** 1 to 100 nM

**Q.** What about the IC50 [2, 4] of the same compound?
**A.** 100 to 1000 nM

**Q.** COCCOc1ccc(-c2ccc(-c3cnn4c(N)c(S(C)(=O)=O)c([C@@H]5C[C@H]6CC[C@@H](C5)N6C(=O)c5nnc[nH]5)nc34)cn2)cc1 [Compound 3.56, ((1R,3s,5S)-3-(7-amino-3-(6-(4-(2-methoxyethoxy)phenyl)pyridin-3-yl)-6-(methylsulfonyl)pyrazolo[1,5-a]pyrimidin-5-yl)-8-azabicyclo[3.2.1]octan-8-yl)(4H-1,2,4-triazol-3-yl)methanone] was tested. Which IC50 [1, 3] did it give?
**A.** 100 to 1000 nM

**Q.** What about the IC50 [2, 3] of the same compound?
**A.** 100 to 1000 nM

**Q.** How did the IC50 [1, 3] turn out when CS(=O)(=O)c1c([C@@H]2C[C@H]3CC[C@@H](C2)N3C(=O)c2nnc[nH]2)nc2c(-c3cnc4ccc(F)cc4c3)cnn2c1N [Compound 3.25] was run?
**A.** 1 to 100 nM

**Q.** What about the IC50 [2, 3] of the same compound?
**A.** 1 to 100 nM
